In patent US20190062305A1, “PYRIDYL OR PYRAZINYL COMPOUNDS CARRYING A METHYL-BOUND ALPHA-AMINO ACID AMIDE GROUP” (ABBVIE DEUTSCHLAND GMBH & CO. KG, priority 2015, published 2019):
Where a name gives a salt, the structure may show the parent alone. Read-outs that look alike come from different tables or passages of the source.

Tests used:
5-HT2C receptor = target: T1, 5-HT2C receptor (Homo sapiens, UniProt P28335); assay: Human 5-HT2C functional assay (beta-arrestin2 recruitment, U2OS_HTR2C_β-Arrestin cells); format: cell-based; details: for EC50: beta-arrestin2 recruitment, U2OS_HTR2C_β-Arrestin cells, 1.5 h incubation, read-out: EC50 5-HT2C (potency in functional assay); for Emax: relative efficacy vs response to 10 μM 5-HT or maximal 5-HT effect (100%)
T1 construct: host or cells: U2OS
How it was run: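 U2OS cells expressing HTR2C with β-galactosidase complementation, switched to 1% serum medium 24 h post-plating, were treated next day with compound for 1.5 h; chemiluminescence read. Response expressed as % of 10 µM 5-HT or maximal 5-HT effect; EC50 from 4-parameter variable-slope fit.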

[1] = Metabolic stability in human liver microsomes, unbound intrinsic clearance (Cl int/fu mic); format: in vitro ADME; details: pH 7.4, human liver microsomes 0.25 mg/mL, 0.5 μM compound, NADPH, read-out: Cl int, mic unb. (h) [l/h/kg] (unbound intrinsic clearance, human)
How it was run: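 Compound (0.5 µM) was incubated with human liver microsomes (0.25 mg/mL) in pH 7.4 phosphate buffer at 37 °C with 1.0 mM NADPH, sampling from 0–30 min. Depletion was followed by LC-MS/MS, and CLint was derived from first-order t1/2 per mg protein. Microsomal unbound fraction came from 4 h equilibrium dialysis at 37 °C, giving CLint/fu mic.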

T1 sequence (P28335 33-458): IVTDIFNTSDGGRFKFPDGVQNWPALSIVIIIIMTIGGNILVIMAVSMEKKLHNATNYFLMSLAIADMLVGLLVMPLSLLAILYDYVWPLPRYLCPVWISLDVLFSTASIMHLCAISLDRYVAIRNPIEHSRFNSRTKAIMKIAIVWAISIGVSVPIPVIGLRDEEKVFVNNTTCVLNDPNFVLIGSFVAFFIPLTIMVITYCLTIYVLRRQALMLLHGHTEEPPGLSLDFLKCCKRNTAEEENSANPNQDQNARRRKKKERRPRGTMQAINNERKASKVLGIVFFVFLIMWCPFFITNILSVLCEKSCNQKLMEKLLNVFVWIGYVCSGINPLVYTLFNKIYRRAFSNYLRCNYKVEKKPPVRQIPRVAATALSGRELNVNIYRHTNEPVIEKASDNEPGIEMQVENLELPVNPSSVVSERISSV
T1 sequence (P32121 whole entry partner): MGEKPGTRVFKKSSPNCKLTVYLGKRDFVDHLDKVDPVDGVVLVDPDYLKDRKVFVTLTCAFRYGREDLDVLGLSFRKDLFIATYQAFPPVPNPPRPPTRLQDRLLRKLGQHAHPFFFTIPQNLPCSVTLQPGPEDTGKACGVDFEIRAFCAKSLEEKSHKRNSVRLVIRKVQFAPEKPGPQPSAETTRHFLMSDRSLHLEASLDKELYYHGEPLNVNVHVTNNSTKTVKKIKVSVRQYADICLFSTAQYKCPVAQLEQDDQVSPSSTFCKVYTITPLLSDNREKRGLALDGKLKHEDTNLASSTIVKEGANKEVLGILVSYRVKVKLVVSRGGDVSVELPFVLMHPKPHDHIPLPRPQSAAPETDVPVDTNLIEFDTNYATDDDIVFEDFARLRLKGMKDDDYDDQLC

SMILES	EC50 (5-HT2C receptor)	Emax (5-HT2C receptor)	CLint scaled at 0.5 μM ([1]; human, liver microsomes)	CLint scaled at 0.5 μM [1]
COc1nc(OC2CCC(F)(F)CC2)c(F)cc1CNC(=O)[C@@H]1C[C@@H](C)CN1 [Example 59, (2 S,4R)—N-[[6-(4,4-Difluorocyclohexoxy)-5-fluoro-2-methoxy-3-pyridyl]methyl]-4-methyl-pyrrolidine-2-carboxamide Hydrochloride]	< 20 nM	50 to 70%	< 5 L/h/kg	–
COc1nc(OC(C(F)(F)F)C(F)(F)F)c(F)cc1CNC(=O)[C@@H]1CCCN1 [Example 111, (2S)—N-[[5-Fluoro-2-methoxy-6-[2,2,2-trifluoro-1-(trifluoromethyl)ethoxy]-3-pyridyl]methyl]pyrrolidine-2-carboxamide Hydrochloride]	< 20 nM	> 70%	5 to 50 L/h/kg	–
COc1nc(OCC(F)(F)C(F)F)c(F)cc1CNC(=O)[C@@H]1CCCN1C [Example 91, (2S)—N-[[5-Fluoro-2-methoxy-6-(2,2,3,3-tetrafluoropropoxy)-3-pyridyl]methyl]-1-methyl-pyrrolidine-2-carboxamide Hydrochloride]	< 20 nM	> 70%	< 5 L/h/kg	–
COc1nc(OCC(F)(F)C(F)(F)C(F)(F)F)c(F)cc1CN(C)C(=O)[C@@H]1CCCN1 [Example 117, (2S)—N-[[5-Fluoro-6-(2,2,3,3,4,4,4-heptafluorobutoxy)-2-methoxy-3-pyridyl]-methyl]-N-methyl-pyrrolidine-2-carboxamide Hydrochloride]	< 20 nM	50 to 70%	–	5 to 50 L/h/kg
COc1nc(NCC2CCC(F)(F)CC2)c(F)cc1CNC(=O)[C@@H]1CCCN1 [Example 169, (2S)—N-[[6-[(4,4-Difluorocyclohexyl)methylamino]-5-fluoro-2-methoxy-3-pyridyl]methyl]pyrrolidine-2-carboxamide; 2,2,2-trifluoroacetic Acid]	< 20 nM	> 70%	< 5 L/h/kg	–
COc1nc(OCC(F)(F)C(F)F)c(F)cc1CNC(=O)[C@@H]1CCCN1 [Example 46, (2S)—N-[[5-Fluoro-2-methoxy-6-(2,2,3,3-tetrafluoropropoxy)-3-pyridyl]methyl]-pyrrolidine-2-carboxamide; Succinic Acid]	< 20 nM	> 70%	< 5 L/h/kg	–
COc1nc(C(F)(F)Cc2ccccc2)c(F)cc1CN(C)C(=O)[C@@H]1CCCN1 [Example 191, (2S)—N-[[6-(1,1-Difluoro-2-phenyl-ethyl)-5-fluoro-2-methoxy-3-pyridyl]methyl]-N-methyl-pyrrolidine-2-carboxamide Hydrochloride]	200 to 1000 nM	30 to 50%	5 to 50 L/h/kg	–
COc1nc(NCC2(C(F)(F)F)CC2)c(F)cc1CNC(=O)[C@@H]1CCCN1 [Example 152, (2S)—N-[[5-Fluoro-2-methoxy-6-[[1-(trifluoromethyl)cyclopropyl]methylamino]-3-pyridyl]methyl]pyrrolidine-2-carboxamide; 2,2,2-trifluoroacetic Acid]	< 20 nM	> 70%	< 5 L/h/kg	–
COc1nc(OCC2CC(F)(F)C2(F)F)c(F)cc1CNC(=O)[C@@H]1CCCN1 (stereo partly drawn) [Example 47, (2S)—N-[[5-Fluoro-2-methoxy-6-[(2,2,3,3-tetrafluorocyclobutyl)methoxy]-3-pyridyl]methyl]pyrrolidine-2-carboxamide; Succinic Acid]	< 20 nM	> 70%	< 5 L/h/kg	–
